Experiments:
[1] = Dissolubility (maximum dissolved concentration in organic solvents, by HPLC); assay type: physicochemical; conditions: 25° C.; for Dissolubility DMF: N,N-dimethylformamide; for Dissolubility PGMEA: propylene glycol monomethyl ether acetate; for Dissolubility THF: tetrahydrofuran
Description: In each of predetermined solvents described in the Table below, a sample was mixed at a temperature of 25° C., and the dissolubility of the sample was evaluated. In more detail, the sample was added to a predetermined amount of a solvent until the sample could not be dissolved, and the sample content of the liquid phase (the solvent phase) of the resulting mixture was analyzed using an HPLC (“SPD-20A” manufactured by SHIMADZU CORPORATION), and thus the concentration (the maximum dissolved concentration) of the sample in the liquid phase (the solvent phase) was determined as a solubility.

[2] = Heat stability by differential scanning calorimetry (DSC); assay type: physicochemical; conditions: heat stability data by DSC
Description: Specifically, 2,7-naphthalenedithiol (2,7-form) described in the Patent Document 1 has a melting point of 186 to 188° C., 2,6-naphthalenedithiol (2,6-form) has a melting point of 196 to 197° C., and 1,5-naphthalenedithiol (1,5-form) described in the Nonpatent Document 1 has a melting point of 120 to 121° C. Thus, these positional isomers of naphthalenedithiol each have a high melting point and are expected to show boiling point elevation due to hydrogen bonds of mercapto groups. […] Thus, it is technically difficult to adopt purification of these naphthalenedithiols by distillation at a relatively high temperature. For example, when 1,5-form, 2,6-form, and 2,7-form are tried to be distilled under vacuum, an outflow (or exit) line is to be maintained at a high temperature in order to prevent crystallization. However, such a high temperature of the outflow line causes not only easy re-evaporation of the naphthalenedithiols in the outflow line but also crystallization and clogging of the naphthalenedithiols in a subsequent line, thus making it impossible to operate the distillation.

Row | SMILES | Dissolubility DMF [1] | Dissolubility Ethyl acetate [1] | Dissolubility Methanol [1] | Dissolubility PGMEA [1] | Dissolubility THF [1] | Dissolubility Toluene [1] | temperature at which weight decreases by 5% or more [2]
1 | Sc1ccc2cc(S)ccc2c1 [Comparative Example 6, 2,6-naphthalenedithiol] | 3.54 % by mass | 0.65 % by mass | 0.11 % by mass | 0.73 % by mass | 4.03 % by mass | 0.64 % by mass | 196 °C
2 | Sc1ccc2ccc(S)cc2c1 [Comparative Example 7, 2,7-naphthalenedithiol] | 7.75 % by mass | 0.90 % by mass | 0.16 % by mass | 1.05 % by mass | 5.24 % by mass | 0.76 % by mass | 188 °C
3 | Sc1cccc2c(S)cccc12 [Comparative Example 5, 1,5-naphthalenedithiol] | 34.4 % by mass | 7.05 % by mass | 1.08 % by mass | 7.44 % by mass | 29.0 % by mass | 7.26 % by mass | 176 °C
4 | Sc1ccc2c(S)cccc2c1 [Example 1, 1,6-naphthalenedithiol] |  |  | 19.3 % by mass |  |  |  | 

Reference: patent US20240217926A1, “1,6-NAPHTHALENEDITHIOL PRODUCT AND PROCESS FOR PRODUCING THE SAME” (SUGAI CHEMICAL INDUSTRY CO., LTD., priority 2022, published 2024)
